# Key:
# NCI-H522 = experiment: Growth inhibition of human NCI-H522 cells after 48 hrs by sulforhodamine B assay; format: functional; details: NCI-H522, 48 h
# COLO 205 = experiment: Growth inhibition of human COLO205 cells after 48 hrs by sulforhodamine B assay; format: functional; details: COLO 205, 48 h
# NCI-H460 = experiment: Growth inhibition of human NCI-H460 cells after 48 hrs by sulforhodamine B assay; format: functional; details: NCI-H460, 48 h
# NCI-H23 = experiment: Growth inhibition of human NCI-H23 cells after 48 hrs by sulforhodamine B assay; format: functional; details: NCI-H23, 48 h
# HOP-62 = experiment: Growth inhibition of human HOP62 cells after 48 hrs by sulforhodamine B assay; format: functional; details: HOP-62, 48 h
# HOP-92 = experiment: Growth inhibition of human HOP92 cells after 48 hrs by sulforhodamine B assay; format: functional; details: HOP-92, 48 h
# A549 = experiment: Growth inhibition of human A549/ATCC cells after 48 hrs by sulforhodamine B assay; format: functional; details: A549, 48 h
# SR = experiment: Growth inhibition of human SR cells after 48 hrs by sulforhodamine B assay; format: functional
# RPMI-8226 = experiment: Growth inhibition of human RPMI8226 cells after 48 hrs by sulforhodamine B assay; format: functional; details: RPMI-8226, 48 h
# MOLT-4 = experiment: Growth inhibition of human MOLT4 cells after 48 hrs by sulforhodamine B assay; format: functional; details: MOLT-4, 48 h
# K562 = experiment: Growth inhibition of human K562 cells after 48 hrs by sulforhodamine B assay; format: functional; details: K562, 48 h
# HL-60(TB) = experiment: Growth inhibition of human HL-60(TB) cells after 48 hrs by sulforhodamine B assay; format: functional; details: HL-60, 48 h
# CCRF-CEM = experiment: Growth inhibition of human CCRF-CEM cells after 48 hrs by sulforhodamine B assay; format: functional
# Ovis aries = species on record: Ovis aries; experiment: Inhibition of sheep brain tubulin polymerization at 100 uM using DAPI by fluorimetry
# T47D = experiment: Growth inhibition of human T47D cells after 48 hrs by sulforhodamine B assay; format: functional
# MDA-MB-468 = experiment: Growth inhibition of human MDA-MB-468 cells after 48 hrs by sulforhodamine B assay; format: functional; details: MDA-MB-468, 48 h
# BT-549 = experiment: Growth inhibition of human BT549 cells after 48 hrs by sulforhodamine B assay; format: functional; details: BT-549, 48 h
# [1] = Growth inhibition of human Hs 578T cells after 48 hrs by sulforhodamine B assay; format: functional
# MDA-MB-231 = experiment: Growth inhibition of human MDA-MB-231 cells after 48 hrs by sulforhodamine B assay; format: functional; details: MDA-MB-231, 48 h
# MCF7 = experiment: Growth inhibition of human MCF7 cells after 48 hrs by sulforhodamine B assay; format: functional; details: MCF7, 48 h
# SF-539 = experiment: Growth inhibition of human SF539 cells after 48 hrs by sulforhodamine B assay; format: functional; details: SF-539, 48 h
# SNB-75 = experiment: Growth inhibition of human SNB75 cells after 48 hrs by sulforhodamine B assay; format: functional; details: SNB-75, 48 h
# SF-295 = experiment: Growth inhibition of human SF295 cells after 48 hrs by sulforhodamine B assay; format: functional; details: SF-295, 48 h
# SF-268 = experiment: Growth inhibition of human SF268 cells after 48 hrs by sulforhodamine B assay; format: functional; details: SF-268, 48 h
# PC-3 = experiment: Growth inhibition of human PC3 cells after 48 hrs by sulforhodamine B assay; format: functional; details: PC-3, 48 h
# TK-10 = experiment: Growth inhibition of human TK10 cells after 48 hrs by sulforhodamine B assay; format: functional; details: TK-10, 48 h
# DU-145 = experiment: Growth inhibition of human DU145 cells after 48 hrs by sulforhodamine B assay; format: functional; details: DU-145, 48 h
# ACHN = experiment: Growth inhibition of human ACHN cells after 48 hrs by sulforhodamine B assay; format: functional
# 786-0 = experiment: Growth inhibition of human 786-0 cells after 48 hrs by sulforhodamine B assay; format: functional; details: 786-0, 48 h
# RXF 393 = experiment: Growth inhibition of human RXF393 cells after 48 hrs by sulforhodamine B assay; format: functional; details: RXF 393, 48 h
# SN12C = experiment: Growth inhibition of human SN12C cells after 48 hrs by sulforhodamine B assay; format: functional
# CAKI-1 = experiment: Growth inhibition of human CAKI-1 cells after 48 hrs by sulforhodamine B assay; format: functional; details: CAKI-1, 48 h
# A498 = experiment: Growth inhibition of human A498 cells after 48 hrs by sulforhodamine B assay; format: functional; details: A498, 48 h
# IGROV-1 = experiment: Growth inhibition of human IGROV1 cells after 48 hrs by sulforhodamine B assay; format: functional; details: IGROV-1, 48 h
# SK-OV-3 = experiment: Growth inhibition of human SKOV3 cells after 48 hrs by sulforhodamine B assay; format: functional; details: SK-OV-3, 48 h
# [2] = Growth inhibition of human NCI-ADR-RES cells after 48 hrs by sulforhodamine B assay; format: functional
# OVCAR-8 = experiment: Growth inhibition of human OVCAR8 cells after 48 hrs by sulforhodamine B assay; format: functional; details: OVCAR-8, 48 h
# OVCAR-5 = experiment: Growth inhibition of human OVCAR5 cells after 48 hrs by sulforhodamine B assay; format: functional; details: OVCAR-5, 48 h
# OVCAR-4 = experiment: Growth inhibition of human OVCAR4 cells after 48 hrs by sulforhodamine B assay; format: functional; details: OVCAR-4, 48 h
# OVCAR-3 = experiment: Growth inhibition of human OVCAR3 cells after 48 hrs by sulforhodamine B assay; format: functional; details: OVCAR-3, 48 h
# SK-MEL-5 = experiment: Growth inhibition of human SK-MEL-5 cells after 48 hrs by sulforhodamine B assay; format: functional; details: SK-MEL-5, 48 h
# Malme-3M = experiment: Growth inhibition of human MALME-3M cells after 48 hrs by sulforhodamine B assay; format: functional
# LOX IMVI = experiment: Growth inhibition of human LOXIMVI cells after 48 hrs by sulforhodamine B assay; format: functional
# UACC-62 = experiment: Growth inhibition of human UACC62 cells after 48 hrs by sulforhodamine B assay; format: functional; details: UACC-62, 48 h
# SK-MEL-28 = experiment: Growth inhibition of human SK-MEL-28 cells after 48 hrs by sulforhodamine B assay; format: functional; details: SK-MEL-28, 48 h
# SK-MEL-2 = experiment: Growth inhibition of human SK-MEL-2 cells after 48 hrs by sulforhodamine B assay; format: functional; details: SK-MEL-2, 48 h
# MDA-MB-435 = experiment: Growth inhibition of human MDA-MB-435 cells after 48 hrs by sulforhodamine B assay; format: functional; details: MDA-MB-435, 48 h
# M14 = experiment: Growth inhibition of human M14 cells after 48 hrs by sulforhodamine B assay; format: functional; details: M14, 48 h
# SW-620 = experiment: Growth inhibition of human SW620 cells after 48 hrs by sulforhodamine B assay; format: functional; details: SW-620, 48 h
# KM12 = experiment: Growth inhibition of human KM12 cells after 48 hrs by sulforhodamine B assay; format: functional; details: KM12, 48 h
# HT-29 = experiment: Growth inhibition of human HT-29 cells after 48 hrs by sulforhodamine B assay; format: functional; details: HT-29, 48 h
# HCT-116 = experiment: Growth inhibition of human HCT116 cells after 48 hrs by sulforhodamine B assay; format: functional; details: HCT-116, 48 h
# HCT-15 = experiment: Growth inhibition of human HCT15 cells after 48 hrs by sulforhodamine B assay; format: functional; details: HCT-15, 48 h
# [3] = Growth inhibition of human HCC2998 cells after 48 hrs by sulforhodamine B assay; format: functional; details: HCC 2998, 48 h
# [4] = Inhibition of sheep brain tubulin polymerization using DAPI by fluorimetry; set-up: species or system Ovis aries
smiles,measurement,setting,value
COc1cc2cc(C(=O)N3c4ccccc4Sc4ccccc43)[nH]c2cc1OC,GI50,NCI-H522,335 nM
same,GI50,COLO 205,595 nM
same,GI50,NCI-H460,396 nM
same,GI50,NCI-H23,7140 nM
same,GI50,HOP-62,838 nM
same,GI50,HOP-92,54 nM
same,GI50,A549,656 nM
same,GI50,SR,303 nM
same,GI50,RPMI-8226,902 nM
same,GI50,MOLT-4,1540 nM
same,GI50,K562,437 nM
same,GI50,HL-60(TB),387 nM
same,GI50,CCRF-CEM,589 nM
same,inhibition,Ovis aries,36%
same,GI50,T47D,804 nM
same,GI50,MDA-MB-468,204 nM
same,GI50,BT-549,6060 nM
same,GI50,[1],1960 nM
same,GI50,MDA-MB-231,184 nM
same,GI50,MCF7,368 nM
same,GI50,SF-539,517 nM
same,GI50,SNB-75,392 nM
same,GI50,SF-295,329 nM
same,GI50,SF-268,10200 nM
same,GI50,PC-3,435 nM
same,GI50,TK-10,8310 nM
same,GI50,DU-145,679 nM
same,GI50,ACHN,611 nM
same,GI50,786-0,941 nM
same,GI50,RXF 393,363 nM
same,GI50,SN12C,3860 nM
same,GI50,CAKI-1,573 nM
same,GI50,A498,215 nM
same,GI50,IGROV-1,1880 nM
same,GI50,SK-OV-3,723 nM
same,GI50,[2],571 nM
same,GI50,OVCAR-8,1630 nM
same,GI50,OVCAR-5,2590 nM
same,GI50,OVCAR-4,1750 nM
same,GI50,OVCAR-3,366 nM
same,GI50,SK-MEL-5,300 nM
same,GI50,Malme-3M,503 nM
same,GI50,LOX IMVI,3310 nM
same,GI50,UACC-62,529 nM
same,GI50,SK-MEL-28,829 nM
same,GI50,SK-MEL-2,873 nM
same,GI50,MDA-MB-435,184 nM
same,GI50,M14,599 nM
same,GI50,SW-620,418 nM
same,GI50,KM12,620 nM
same,GI50,HT-29,395 nM
same,GI50,HCT-116,537 nM
same,GI50,HCT-15,442 nM
same,GI50,[3],23400 nM
COc1ccc(C(=O)c2cc(OC)c(OC)c(OC)c2)cc1O [PHENSTATIN],GI50,NCI-H460,6 nM
same,IC50,[4],3430 nM
same,inhibition,Ovis aries,99%
same,GI50,MCF7,437 nM
same,GI50,SF-295,52 nM
same,GI50,DU-145,34 nM
same,GI50,A498,380 nM
same,GI50,OVCAR-3,2 nM
COc1cc([C@@H]2c3cc4c(cc3C[C@H]3COC(=O)[C@@H]32)OCO4)cc(OC)c1OC [DESOXYPODOPHYLLOTOXIN],IC50,[4],1760 nM
same,inhibition,Ovis aries,100%

# Reference: ChEMBL document CHEMBL2331144, “Synthesis and anticancer activity of analogues of phenstatin, with a phenothiazine A-ring, as a new class of microtubule-targeting agents” (Bioorg Med Chem Lett, 2013)
